Test results: PMC5623949, “Exploiting the 2-Amino-1,3,4-thiadiazole Scaffold To Inhibit Trypanosoma brucei Pteridine Reductase in Support of Early-Stage Drug Discovery” (ACS Omega, 2017)
Entries after “also recorded” stand apart in the source; their conditions may differ. Read-outs that look alike come from different tables or passages of the source.

Tests used:
[1] = target: T1, hERG (Homo sapiens, UniProt Q12809); design: hERG inhibition liability assay
T1 construct: gene KCNH2

[2] = test system: 786-O; assay: cells; design: mitochondrial toxicity in 786-O cells; details: Homo sapiens, 786-0
Protocol: (§1) Independent of the effect of any antiparasitic potential of compounds, they were evaluated using a panel of early-toxicity assays comprising cytotoxicity (A549, human lung adenocarcinoma epithelial cell line and WI-38, human lung fibroblasts), mitochondrial toxicity (786-O, human renal carcinoma cell line), hERG inhibition,[31] cytochrome P450 inhibition (CYP1A2, CYP2C9, CYP2C19, CYP2D6, and CYP3A4),[31] and Aurora B kinase inhibition. […] For the two compounds active against TbPTR1 (4m and 4o), IC50 against hERG, cytochrome P450, and mitochondrial toxicity were determined (reported in Supporting Information). We observed that the dose of compounds 4m, 4o, 4c, and 3k was 4 μM in the potentiation assays. […] In the case of hERG, CYP2D6, CYP2A9, CYP2C19, and mitochondrial toxicity, there is a selectivity index of around 3–4 fold, thus showing an acceptable profile.

[3] = in vitro; design: cytotoxicity, per cent cell growth of WI-38 fibroblasts; details: human, wi-38 cells; read-out: % cell growth W1-38 at 10uM
[4] = target: T2, TbPTR1 (Trypanosoma brucei brucei, UniProt O76290); assay: biochemical; details: for inhibition at 50 µM: 50 μM compound, read-out: % Inhibition TbPTR1 at 50 μM; for IC50: dose-response 0.001-100 μM
T2 construct: made in house
T2 sequence (O76290 1-268): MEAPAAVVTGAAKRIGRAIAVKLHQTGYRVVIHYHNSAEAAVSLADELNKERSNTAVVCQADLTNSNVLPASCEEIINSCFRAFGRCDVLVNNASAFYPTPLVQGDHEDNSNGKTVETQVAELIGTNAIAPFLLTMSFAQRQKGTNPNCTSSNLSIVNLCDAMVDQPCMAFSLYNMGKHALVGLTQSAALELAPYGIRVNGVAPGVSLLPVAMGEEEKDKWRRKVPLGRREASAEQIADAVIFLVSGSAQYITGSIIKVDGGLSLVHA

[5] = test system: T. b. brucei Lister 427 bloodstream forms; assay: In vitro activity against T. brucei (HTS SYBR Green I growth inhibition assay); assay type: cell-based, Trypanosoma brucei brucei; details: 50 μM, standard deviation within ±10% of the value; for inhibition at 50 µM: Trypanosoma brucei, read-out: % Inhibition T. brucei at 50 μM
[6] = test system: T. b. brucei Lister 427 bloodstream forms; assay: T. brucei resazurin assay for MTX potentiation and folic acid supplementation; assay type: cell-based, Trypanosoma brucei brucei; details: for antiparasitic effect as single agent: compound alone, 4m at 50 μM
Protocol: T. b. brucei Lister 427 bloodstream forms were grown at 37 °C and 5% CO2 in a complete HMI-9 medium, supplemented with 10% FCS and 100 UI/mL of penicillin/streptomycin. The cultures were diluted until a cell density of 2 × 10^6/mL was reached. The efficacy of compounds against T. brucei bloodstream forms was evaluated using a modified resazurin-based assay previously described.[46] The compounds were prepared from a stock solution in 10 mM DMSO and diluted in HMI-9 (supplemented or not with 1 mM folic acid, Sigma-Aldrich) to 40 μM work solution (0.4% DMSO, with the DMSO limit in the assay being 0.4%). […] The 40 μM work solution was then used to perform serial dilutions (1:2) in a 96-well plate. Upon compound addition to the test plate, the mid-log bloodstream forms were added (100 μL) in complete HMI-9 medium (supplemented or not with 1 mM folic acid) at a final cell density of 1 × 10^4/mL in a final well volume of 200 μL with a maximum DMSO concentration of 0.2%. Following incubation for 72 h at 37 °C and 5% CO2, 20 μL of 0.5 mM resazurin solution was added, and the plates were incubated further for 4 h under the same conditions. Fluorescence was measured at 540 and 620 nm excitation and emission wavelengths, respectively, using a Synergy 2 multi-mode reader (BioTek). […] This approach requires the use of both compounds at their EC50 potency in the combination, which is impossible to be detected for compound 4m having no intrinsic antiparasitic activity as a single agent at the tested concentrations. Folic acid (1 mM) was chosen on the basis of the following experiments. The stock solution of 10 mM folic acid dissolved in NaOH solution was used to perform a dose–response curve with folic acid alone to evaluate the maximum amount we could use without compromising parasite growth due to pH modification of the media. […] The IC50 values reported are the averages of the results obtained in at least two independent experiments. Pentamidine was used as the reference drug and internal control in all assays.

[7] = target: T3, TbDHFR (Trypanosoma brucei brucei, UniProt Q27783); assay: TbDHFR enzyme inhibition (spectrophotometric); assay type: biochemical; details: 100 μM; Table S3
T3 construct: made in house
T3 sequence (Q27783 whole entry): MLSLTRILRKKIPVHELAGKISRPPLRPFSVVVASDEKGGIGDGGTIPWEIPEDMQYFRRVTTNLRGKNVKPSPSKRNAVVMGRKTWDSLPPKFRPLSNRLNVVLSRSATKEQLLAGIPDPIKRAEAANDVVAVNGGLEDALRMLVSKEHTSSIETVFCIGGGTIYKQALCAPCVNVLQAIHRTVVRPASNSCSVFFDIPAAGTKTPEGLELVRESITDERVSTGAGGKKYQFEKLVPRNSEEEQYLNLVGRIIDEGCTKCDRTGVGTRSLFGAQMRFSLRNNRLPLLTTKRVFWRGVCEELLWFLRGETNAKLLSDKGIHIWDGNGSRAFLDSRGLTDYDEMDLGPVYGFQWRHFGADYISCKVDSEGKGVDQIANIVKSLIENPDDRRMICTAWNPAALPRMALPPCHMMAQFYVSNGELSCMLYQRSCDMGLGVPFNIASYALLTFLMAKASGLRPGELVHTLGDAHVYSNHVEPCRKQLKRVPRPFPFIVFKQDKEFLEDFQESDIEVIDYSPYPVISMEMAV

[8] = in vitro; design: cytotoxicity, per cent cell growth of A549 cells; details: human, a549 cells; read-out: % cell growth A549 at 10uM
[9] = target: T1, hERG; design: hERG channel inhibition
Protocol: as §1

T1 sequence (Q12809 whole entry): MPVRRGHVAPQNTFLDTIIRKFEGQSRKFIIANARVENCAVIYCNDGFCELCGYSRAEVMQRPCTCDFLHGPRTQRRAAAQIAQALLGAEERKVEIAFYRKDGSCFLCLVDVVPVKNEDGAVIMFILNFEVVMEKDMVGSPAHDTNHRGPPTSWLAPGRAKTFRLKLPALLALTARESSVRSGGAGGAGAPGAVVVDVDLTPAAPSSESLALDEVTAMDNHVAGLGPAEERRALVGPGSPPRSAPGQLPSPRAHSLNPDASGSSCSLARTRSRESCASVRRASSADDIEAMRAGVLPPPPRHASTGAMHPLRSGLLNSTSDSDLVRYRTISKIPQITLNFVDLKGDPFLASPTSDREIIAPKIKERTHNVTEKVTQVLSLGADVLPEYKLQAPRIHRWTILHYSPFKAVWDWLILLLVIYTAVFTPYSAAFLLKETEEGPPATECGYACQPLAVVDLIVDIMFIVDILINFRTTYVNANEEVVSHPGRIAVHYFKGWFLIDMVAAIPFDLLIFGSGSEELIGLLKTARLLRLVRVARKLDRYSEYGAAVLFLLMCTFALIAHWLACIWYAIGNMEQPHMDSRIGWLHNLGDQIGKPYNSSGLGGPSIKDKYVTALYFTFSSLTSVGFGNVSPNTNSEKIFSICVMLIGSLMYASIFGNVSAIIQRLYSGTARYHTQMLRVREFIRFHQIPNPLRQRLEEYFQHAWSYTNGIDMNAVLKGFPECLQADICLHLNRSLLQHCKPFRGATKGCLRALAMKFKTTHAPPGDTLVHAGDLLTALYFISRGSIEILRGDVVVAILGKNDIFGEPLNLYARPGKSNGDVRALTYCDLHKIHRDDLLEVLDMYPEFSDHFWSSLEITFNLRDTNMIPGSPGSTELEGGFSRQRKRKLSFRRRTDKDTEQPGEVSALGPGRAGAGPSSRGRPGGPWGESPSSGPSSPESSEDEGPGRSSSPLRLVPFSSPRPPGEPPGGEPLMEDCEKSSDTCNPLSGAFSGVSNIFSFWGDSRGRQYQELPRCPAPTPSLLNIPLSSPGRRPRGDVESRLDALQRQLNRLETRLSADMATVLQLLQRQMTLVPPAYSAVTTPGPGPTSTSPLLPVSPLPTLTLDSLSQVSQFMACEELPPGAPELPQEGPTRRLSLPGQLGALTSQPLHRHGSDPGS

With `Nc1nnc(NCCc2cccs2)s1` [4o, N2G(2G(thiophenG2Gyl)ethyl)G1,3,4GthiadiazoleG2,5Gdiamine] the IC50 [1] was 3.1 µM, the inhibition at 10 µM [2] was 0.5 ± 4.8% and the viability at 10 µM [3] was 96.7 ± 13.5%. The inhibition at 50 µM [4] was 79.8 ± 0.4%, the IC50 [4] was 25 µM and the “% Inhibition T. brucei at 50 μM” value [5] was “poor antiparasitic activity”. For the same compound, the inhibition at 50 µM [5] was 37.9%, the “antiparasitic effect as single agent” value [6] was “low T. brucei cell inhibitory activity” and the “inhibitory activity against TbDHFR” value [7] was “neither 4m nor 4o is able to inhibit”. It also gave a viability at 10 µM [8] of 105 ± 11.4% and an inhibition at 10 µM [9] of 95.4 ± 8%.

`Nc1nnc(NCc2ccc(-c3ccccc3)cc2)s1` [4m] gave an IC50 [1] of 3.6 µM, an inhibition at 10 µM [2] of -2.5 ± 6.1% and a viability at 10 µM [3] of 95.9 ± 18.6%. It also gave an inhibition at 50 µM [4] of 73 ± 1.1%, an IC50 [4] of 16 µM and an inhibition at 50 µM [5] of 6.6%. For the same compound, the “effect of 1 mM folic acid on T. b. brucei growth inhibition” value ([6]; 1 mM folic acid, MTX alone or equimolar 4m + MTX) was “reversed; also recorded: rescue cell growth”, the “antiparasitic effect as single agent” value [6] was “did not show any significant antiparasitic effect” and the “inhibitory activity against TbDHFR” value [7] was “neither 4m nor 4o is able to inhibit”. The viability at 10 µM [8] was 112 ± 9.5% and the inhibition at 10 µM [9] was 52.6 ± 11.6%.
